24 molecules from US10988449B2, “Isoxazole derivatives as nuclear receptor agonists and uses thereof” (IL DONG PHARMACEUTICAL CO., LTD., priority 2017, dated 2021) can be followed below.

Molecules are shown by their SMILES.

For this test, the target named is T1, human FXR (Homo sapiens, UniProt Q96RI1).
T1 construct: expressed in transfected cells
T1 sequence (Q96RI1 1-486): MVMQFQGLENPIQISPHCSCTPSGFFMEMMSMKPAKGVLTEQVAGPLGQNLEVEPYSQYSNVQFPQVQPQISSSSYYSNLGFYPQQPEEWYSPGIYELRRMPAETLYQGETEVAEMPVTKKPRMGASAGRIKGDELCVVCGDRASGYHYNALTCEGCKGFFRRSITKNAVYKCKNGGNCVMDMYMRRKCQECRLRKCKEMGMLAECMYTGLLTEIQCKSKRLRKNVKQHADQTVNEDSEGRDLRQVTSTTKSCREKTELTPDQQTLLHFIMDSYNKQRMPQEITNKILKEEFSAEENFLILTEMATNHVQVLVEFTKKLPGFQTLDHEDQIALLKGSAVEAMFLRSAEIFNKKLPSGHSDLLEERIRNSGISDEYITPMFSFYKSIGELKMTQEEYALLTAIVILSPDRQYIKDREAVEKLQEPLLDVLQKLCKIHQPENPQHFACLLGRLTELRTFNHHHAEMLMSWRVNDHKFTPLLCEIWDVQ
Briefly: FXR reporter assay (cellular FXR activities). The class given is cell-based. The following applies: for EC50: FXR reporter cells, 24 hours incubation, luciferase, read-out: Reporter Cell EC50; for Emax: read-out: Emax (%) (GW4064 Emax = 100%). The gist of the method:
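EC50 derived from luciferase read-out after 24 h (37 °C, 5% CO2) treatment of human-FXR-expressing reporter cells with serially diluted compound.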

Regarding `CN(C)c1cc(C#Cc2ccc(OCc3c(-c4c(Cl)cccc4Cl)noc3C3CC3)cc2Cl)ccc1C(=O)O` [Compound I-23, 4-((2-chloro-4-((5-cyclopropyl-3-(2,6-dichlorophenyl)isoxazol-4-yl)methoxy)phenyl)ethynyl)-2-(dimethylamino)benzoic acid], the EC50 lay within 60 to 200 nM and the Emax was greater than 100%.

With `CCNCc1cc(C#Cc2ccc(OCc3c(-c4c(Cl)cccc4Cl)noc3C3CC3)cc2Cl)cc(C(=O)O)c1` [Compound I-45, 3-((2-chloro-4-((5-cyclopropyl-3-(2,6-dichlorophenyl)isoxazol-4-yl)methoxy)phenyl)ethynyl)-5-((ethylamino)methyl)benzoic acid], the 50% effective concentration (EC50) lay in the range of 200 to 1000 nM and the Emax came out at 88%.

`O=C(O)c1cc(C#Cc2ccc(OCc3c(-c4c(Cl)cccc4Cl)noc3C3CC3)cc2Cl)cc(C(=O)O)c1` [Compound I-84, 5-((2-chloro-4-((5-cyclopropyl-3-(2,6-dichlorophenyl)isoxazol-4-yl)methoxy)phenyl)ethynyl)isophthalic acid]: the half-maximal effective concentration (EC50) was in the range of 200 to 1000 nM and the Emax came out at 98%.

In the case of `CCNc1cc(C#Cc2ccc(OCc3c(-c4c(Cl)cccc4Cl)noc3C3CC3)cc2Cl)cc(C(=O)O)c1` [Compound I-53, 3-((2-chloro-4-((5-cyclopropyl-3-(2,6-dichlorophenyl)isoxazol-4-yl)methoxy)phenyl)ethynyl)-5-(ethylamino)benzoic acid], the half-maximal effective concentration (EC50) was no more than 20 nM and the Emax was 93%.

Consider `O=C(O)c1cccc(C#Cc2ccc(OCc3c(-c4ccccc4C(F)(F)F)noc3C3CC3)cc2Cl)c1` [Compound I-87, 3-((2-chloro-4-((5-cyclopropyl-3-(2-(trifluoromethyl)phenyl)isoxazol-yl)methoxy)phenyl)ethynyl)benzoic acid], for which the EC50 lay in the range of 200 to 1000 nM and the maximal effect (Emax) was greater than 100%.

With `CC(C)(O)Cn1ccc2c(C#Cc3ccc(OCc4c(-c5c(Cl)cccc5Cl)noc4C4CC4)cc3Cl)cc(C(=O)O)cc21` [Compound I-98, 4-((2-chloro-4-((5-cyclopropyl-3-(2,6-dichlorophenyl)isoxazol-4-yl)methoxy)phenyl)ethynyl)-1-(2-hydroxy-2-methylpropyl)-1H-indole-6-carboxylic acid], the EC50 lay within 20 to 60 nM and the Emax is greater than 100%.

In the case of `O=C(O)c1cc(C#Cc2ccc(OCc3c(-c4c(Cl)cccc4Cl)noc3C3CC3)cc2Cl)cc2nccnc12` [Compound I-108, 7-((2-chloro-4-((5-cyclopropyl-3-(2,6-dichlorophenyl)isoxazol-4-yl)methoxy)phenyl)ethynyl)quinoxaline-5-carboxylic acid], the concentration for a half-maximal effect (EC50) was 20 to 60 nM and the maximal response (Emax) worked out at 98%.

As to `O=C(O)c1cc(C#Cc2ccc(OCc3c(-c4c(Cl)cccc4Cl)noc3C3CC3)cc2Cl)c2nc[nH]c2c1` [Compound I-90, 4-((2-chloro-4-((5-cyclopropyl-3-(2,6-dichlorophenyl)isoxazol-4-yl)methoxy)phenyl)ethynyl)-1H-benzo[d]imidazole-6-carboxylic acid], the 50% effective concentration (EC50) was 200 to 1000 nM and the maximal effect (Emax) worked out at 75%.

For `O=C(O)c1cccc(C#Cc2cc(Cl)c(OCc3c(-c4c(Cl)cccc4Cl)noc3C3CC3)cc2Cl)c1` [Compound I-68, 3-((2,5-dichloro-4-((5-cyclopropyl-3-(2,6-dichlorophenyl)isoxazol-4-yl)methoxy)phenyl)ethynyl)benzoic acid], the EC50 was greater than 1000 nM and the maximal effect (Emax) came to 96%.

In the case of `Cc1nc2cc(C#Cc3ccc(OCc4c(-c5c(Cl)cccc5Cl)noc4C4CC4)cc3Cl)cc(C(=O)O)c2o1` [Compound I-103, 5-((2-chloro-4-((5-cyclopropyl-3-(2,6-dichlorophenyl)isoxazol-4-yl)methoxy)phenyl)ethynyl)-2-methylbenzo[d]oxazole-7-carboxylic acid], the EC50 is no more than 20 nM and the maximum response (Emax) is greater than 100%.

For `N#Cc1cc(C#Cc2ccc(OCc3c(-c4c(Cl)cccc4Cl)noc3C3CC3)cc2Cl)cc(C(=O)O)c1` [Compound I-33, 3-((2-chloro-4-((5-cyclopropyl-3-(2,6-dichlorophenyl)isoxazol-4-yl)methoxy)phenyl)ethynyl)-5-cyanobenzoic acid], the EC50 lay in the range of 60 to 200 nM and the Emax was 99%.

As for `O=C(O)c1cc(C#Cc2ccc(OCc3c(-c4c(Cl)cccc4Cl)noc3C3CC3)cc2Cl)cc(N2CCCC2)c1` [Compound I-56, 3-((2-chloro-4-((5-cyclopropyl-3-(2,6-dichlorophenyl)isoxazol-4-yl)methoxy)phenyl)ethynyl)-5-(pyrrolidin-1-yl)benzoic acid], the EC50 was no more than 20 nM and the maximal response (Emax) was determined as 96%.

As for `O=C(O)c1cc(C#Cc2ccc(OCc3c(-c4c(Cl)cccc4Cl)noc3C3CC3)cc2Cl)cc(C(F)(F)F)c1` [Compound I-31, 3-((2-chloro-4-((5-cyclopropyl-3-(2,6-dichlorophenyl)isoxazol-4-yl)methoxy)phenyl)ethynyl)-5-(trifluoromethyl)benzoic acid], the EC50 is 20 to 60 nM and the maximum response (Emax) was greater than 100%.

For `O=C(O)c1cccc(C#Cc2ccc(OCc3c(-c4ccccc4OC(F)(F)F)noc3C3CC3)cc2Cl)c1` [Compound I-88, 3-((2-chloro-4-((5-cyclopropyl-3-(2-(trifluoromethoxy)phenyl)isoxazol-4-yl)methoxy)phenyl)ethynyl)benzoic acid], the EC50 was in the range of 200 to 1000 nM and the maximum response (Emax) amounted to 97%.

As for `CCOC(=O)Nc1cc(C#Cc2ccc(OCc3c(-c4c(Cl)cccc4Cl)noc3C3CC3)cc2Cl)cc(C(=O)OC)c1` [Compound I-8, methyl 3-((2-chloro-4-((5-cyclopropyl-3-(2,6-dichlorophenyl)isoxazol-4-yl)methoxy)phenyl)ethynyl)-5-((ethoxycarbonyl)amino)benzoate], the EC50 is greater than 1000 nM and the Emax turned out to be 98%.

On to `O=C(O)c1cc(C#Cc2ccc(OCc3c(-c4c(Cl)cccc4Cl)noc3C3CC3)cc2Cl)cc(CNC2CC2)c1` [Compound I-42, 3-((2-chloro-4-((5-cyclopropyl-3-(2,6-dichlorophenyl)isoxazol-4-yl)methoxy)phenyl)ethynyl)-5-((cyclopropylamino)methyl)benzoic acid], for which the concentration for a half-maximal effect (EC50) was in the range of 20 to 60 nM and the Emax is greater than 100%.

As to `CC(C)NCCCn1ccc2c(C#Cc3ccc(OCc4c(-c5c(Cl)cccc5Cl)noc4C4CC4)cc3Cl)cc(C(=O)O)cc21` [Compound I-93, 4-((2-chloro-4-((5-cyclopropyl-3-(2,6-dichlorophenyl)isoxazol-4-yl)methoxy)phenyl)ethynyl)-1-(3-(isopropylamino)propyl)-1H-indole-6-carboxylic acid], the EC50 was 200 to 1000 nM and the Emax came to 82%.

Regarding `O=C(O)c1cc(C#Cc2ccc(OCc3c(-c4c(Cl)cccc4Cl)noc3C3CC3)cc2Cl)cc(C2CC2)c1` [Compound I-64, 3-((2-chloro-4-((5-cyclopropyl-3-(2,6-dichlorophenyl)isoxazol-4-yl)methoxy)phenyl)ethynyl)-5-cyclopropylbenzoic acid], the EC50 was in the range of 20 to 60 nM and the maximal effect (Emax) was greater than 100%.

Turning to `O=C(O)c1cc(I)cc(C#Cc2ccc(OCc3c(-c4c(Cl)cccc4Cl)noc3C3CC3)cc2Cl)c1` [Compound I-67, 3-((2-chloro-4-((5-cyclopropyl-3-(2,6-dichlorophenyl)isoxazol-4-yl)methoxy)phenyl)ethynyl)-5-iodobenzoic acid], the EC50 lay in the range of 20 to 60 nM and the Emax was greater than 100%.

For `C#Cc1cc(C#Cc2ccc(OCc3c(-c4c(Cl)cccc4Cl)noc3C3CC3)cc2Cl)cc(C(=O)O)c1` [Compound I-32, 3-((2-chloro-4-((5-cyclopropyl-3-(2,6-dichlorophenyl)isoxazol-4-yl)methoxy)phenyl)ethynyl)-5-ethynylbenzoic acid], the EC50 lay within 60 to 200 nM and the Emax is 94%.

On to `CCc1nc2c(C(=O)O)cc(C#Cc3ccc(OCc4c(-c5c(Cl)cccc5Cl)noc4C4CC4)cc3Cl)cc2o1` [Compound I-113, 6-((2-chloro-4-((5-cyclopropyl-3-(2,6-dichlorophenyl)isoxazol-4-yl)methoxy)phenyl)ethynyl)-2-ethylbenzo[d]oxazole-4-carboxylic acid], for which the EC50 lay within 20 to 60 nM and the Emax amounted to 96%.

For `O=C(O)c1cc(C#Cc2ccc(OCc3c(-c4c(Cl)cccc4Cl)noc3C3CC3)cc2Cl)cc(CNCC(F)(F)F)c1` [Compound I-46, 3-((2-chloro-4-((5-cyclopropyl-3-(2,6-dichlorophenyl)isoxazol-4-yl)methoxy)phenyl)ethynyl)-5-(((2,2,2-trifluoroethyl)amino)methyl)benzoic acid], the half-maximal effective concentration (EC50) lay within 60 to 200 nM and the maximal effect (Emax) was found to be 99%.

On to `CNCc1cc(C#Cc2ccc(OCc3c(-c4c(Cl)cccc4Cl)noc3C3CC3)cc2Cl)cc(C(=O)O)c1` [Compound I-44, 3-((2-chloro-4-((5-cyclopropyl-3-(2,6-dichlorophenyl)isoxazol-4-yl)methoxy)phenyl)ethynyl)-5-((methylamino)methyl)benzoic acid], for which the EC50 was 200 to 1000 nM and the maximal effect (Emax) is greater than 100%.

Turning to `O=C(O)c1ccc(C#Cc2ccc(OCc3c(-c4c(Cl)cccc4Cl)noc3C3CC3)cc2)cc1` [Compound I-1, 4-((4-((5-cyclopropyl-3-(2,6-dichlorophenyl)isoxazol-4-yl)methoxy)phenyl)ethynyl)benzoic acid], the EC50 is greater than 1000 nM and the Emax was greater than 100%.
